# According to patent US8415469B2, “Compounds and methods for kinase modulation, and indications therefor” (Plexxikon Inc., priority 2005, dated 2013):
# pIC50: −log10 of the molar value.
# How the values were obtained:
# Format in all cases: biochemical
# Kdr = molecular target: T1, Kdr (Homo sapiens, UniProt P35968); assay: Z'-Lyte FRET kinase assay (Invitrogen), Kdr; details: read-out: IC50, activity toward kinase Kdr
# T1 construct: purchased Invitrogen (assay run by Invitrogen)
# MAP2K1 = molecular target: T2, MAP2K1 (Homo sapiens, UniProt Q02750); assay: Z'-Lyte FRET kinase assay (Invitrogen), MAP2K1; details: read-out: IC50, activity toward kinase MAP2K1
# T2 construct: purchased Invitrogen (assay run by Invitrogen)
# Stk6 = molecular target: T3, Stk6 (Homo sapiens, UniProt O14965); assay: Z'-Lyte FRET kinase assay (Invitrogen), Stk6; details: read-out: IC50, activity toward kinase Stk6
# T3 construct: purchased Invitrogen (Carlsbad, Calif.), screening service
# T3 sequence (O14965 1-403): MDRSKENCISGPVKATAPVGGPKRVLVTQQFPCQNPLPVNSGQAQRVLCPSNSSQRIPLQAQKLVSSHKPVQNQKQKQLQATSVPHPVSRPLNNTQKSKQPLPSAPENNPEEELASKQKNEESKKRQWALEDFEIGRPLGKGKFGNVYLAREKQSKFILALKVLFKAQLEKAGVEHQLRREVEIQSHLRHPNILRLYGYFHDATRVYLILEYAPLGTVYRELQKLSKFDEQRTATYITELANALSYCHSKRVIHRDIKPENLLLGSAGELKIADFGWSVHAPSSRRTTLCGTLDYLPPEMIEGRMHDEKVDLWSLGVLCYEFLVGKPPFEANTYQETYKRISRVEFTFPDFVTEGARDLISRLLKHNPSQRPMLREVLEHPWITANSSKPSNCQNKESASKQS
# Flt4 = molecular target: T4, Flt4 (Homo sapiens, UniProt P35916); assay: AlphaScreen kinase assay, Flt4; details: read-out: IC50, activity toward kinase Flt4
# T4 construct: purchased ProQinase GmbH (Freiburg, Germany)
# Text: AlphaScreen assay was used to screen additional kinases. The assay is similarly dependent on the phosphorylation of a peptide substrate. In this assay, an antibody that recognizes phosphorylated substrate is bound to an acceptor bead. The peptide substrate is attached to biotin, which binds to a donor head that contains streptavidin. Thus phosphorylated substrate is bound by antibody and streptavidin, bringing the donor and acceptor heads into close proximity when kinase is not inhibited. The donor produces singlet oxygen which results in emission from the acceptor when they are in close proximity. Conversely, when kinase is inhibited, the donor and acceptor beads are not associated and the emission from the acceptor is reduced.
# AlphaScreen assays were done using compounds dissolved in DMSO to a concentration of 20 mM. The compounds were diluted accordingly to the desired final concentrations in each sample well, using 1:3 serial dilution for a total of 8 concentration points.
# Jnk3 = molecular target: T5, Jnk3 (Homo sapiens, UniProt P53779); assay: AlphaScreen kinase assay, Jnk3; details: read-out: IC50, activity toward kinase Jnk3
# T5 construct: purchased Upstate Biotechnology
# Kit = molecular target: T6, Kit (Homo sapiens, UniProt P10721); assay: AlphaScreen kinase assay, Kit; details: read-out: IC50, activity toward kinase Kit
# T6 construct: P1332.N6 BI PTP KIT M552-K948-X COD; His6 (N); made in house; host or cells: E. coli (PTP1B co-expressed)
# Met = molecular target: T7, Met (Homo sapiens, UniProt P08581); assay: AlphaScreen kinase assay, Met; details: read-out: IC50, activity toward kinase Met
# T7 construct: P1818.pETN6 BI-PTP MET G1056-G1364-X WT; His6 (N); made in house; host or cells: E. coli (PTP1B co-expressed)
# Summary of the method: (§1)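 Biotinylated peptide substrate is phosphorylated by kinase; anti-phosphopeptide antibody on acceptor beads and streptavidin donor beads bring emission when substrate is phosphorylated. Inhibition lowers acceptor signal. Compounds from 20 mM DMSO stock tested as 8-point 1:3 serial dilutions.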
# Ret = molecular target: T8, Ret (Homo sapiens, UniProt P07949); assay: AlphaScreen kinase assay, Ret; details: read-out: IC50, activity toward kinase Ret
# T8 construct: P1378.pET-SF BI-PTP RET H661-R1012 HIS; made in house
# T8 sequence (P07949 with tags, fused parts or gaps): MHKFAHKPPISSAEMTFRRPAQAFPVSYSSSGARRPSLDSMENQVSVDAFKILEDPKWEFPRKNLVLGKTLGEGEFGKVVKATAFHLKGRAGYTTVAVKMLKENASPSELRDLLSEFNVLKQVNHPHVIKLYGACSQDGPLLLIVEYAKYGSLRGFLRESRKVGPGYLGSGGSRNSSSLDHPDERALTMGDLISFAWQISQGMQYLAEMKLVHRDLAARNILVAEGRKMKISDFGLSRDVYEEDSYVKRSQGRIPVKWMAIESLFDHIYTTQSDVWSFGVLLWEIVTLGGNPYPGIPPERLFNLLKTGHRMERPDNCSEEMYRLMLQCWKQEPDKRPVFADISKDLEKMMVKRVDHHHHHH
# Abl = molecular target: T9, Abl (Homo sapiens, UniProt P00519); assay: AlphaScreen kinase assay, Abl; details: read-out: activity toward kinase Abl, IC50
# T9 construct: P1121. pET-SPEC BI-PTP Abl G227-V515-X; His6 (N); made in house; host or cells: E. coli (PTP1B co-expressed)
# T9 sequence (P00519 with tags, fused parts or gaps): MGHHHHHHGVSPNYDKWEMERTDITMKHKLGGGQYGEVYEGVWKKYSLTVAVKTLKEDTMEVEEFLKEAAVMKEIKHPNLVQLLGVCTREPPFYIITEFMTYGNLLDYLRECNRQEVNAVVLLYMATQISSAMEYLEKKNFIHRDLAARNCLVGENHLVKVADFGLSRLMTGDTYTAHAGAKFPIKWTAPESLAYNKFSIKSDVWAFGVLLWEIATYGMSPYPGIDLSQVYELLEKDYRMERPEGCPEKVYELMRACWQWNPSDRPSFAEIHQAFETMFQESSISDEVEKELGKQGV
# Summary of the method: as §1
# FGFR1 = molecular target: T10, FGFR1 (Homo sapiens, UniProt P11362, C488A/C584S); assay: AlphaScreen kinase assay, FGFR1; details: read-out: IC50, activity toward kinase FGFR
# T10 construct: P1351.pET N6 BI-PTP FGFR A458-E765-X C488A, C584S; made in house; host or cells: E. coli (PTP1B co-expressed)
# Jnk2 = molecular target: T11, Jnk2 (Homo sapiens, UniProt P45984); assay: AlphaScreen kinase assay, Jnk2; details: read-out: IC50, activity toward kinase Jnk2
# T11 construct: purchased Roche Protein Expression Group (Indianapolis, IN)
# Summary of the method: as §1
# Pyk2 = molecular target: T12, Pyk2 (Homo sapiens, UniProt Q14289); assay: AlphaScreen kinase assay, Pyk2; details: read-out: IC50, activity toward kinase Pyk2
# T12 construct: purchased Upstate Biotechnology
# B-Raf V600E = molecular target: T13, B-Raf V600E (Homo sapiens, UniProt P15056, V600E); assay: AlphaScreen kinase assay, B-Raf V600E; details: read-out: IC50, activity toward kinase B-Raf V600E
# T13 construct: P4254. pFastBacBD-CDC37 BRAF D437-K722-X, V600E; His6 with pFastBac HT leader (TEV site) (N); made in house; host or cells: Sf9 (baculovirus; chaperone CDC37 co-expressed)
# c-Raf-1 = molecular target: T14, c-Raf-1 (Homo sapiens, UniProt P04049); assay: AlphaScreen kinase assay, c-Raf-1; details: read-out: IC50, activity toward kinase c-Raf-1
# T14 construct: purchased Upstate Biotechnology
# Fms = molecular target: T15, Fms (Homo sapiens, UniProt P07333); assay: AlphaScreen kinase assay, Fms; details: read-out: IC50, activity toward kinase Fms
# T15 construct: purchased Upstate Biotechnology
# Flt1 = molecular target: T16, Flt1 (Homo sapiens, UniProt P17948); assay: AlphaScreen kinase assay, Flt1; details: read-out: IC50, activity toward kinase Flt1
# T16 construct: P1826.pETN6 BI-PTP FLT1 M799-D1165-X WT; His6 (N); made in house; host or cells: E. coli (PTP1B co-expressed)
# T16 sequence (P17948 with tags, fused parts or gaps): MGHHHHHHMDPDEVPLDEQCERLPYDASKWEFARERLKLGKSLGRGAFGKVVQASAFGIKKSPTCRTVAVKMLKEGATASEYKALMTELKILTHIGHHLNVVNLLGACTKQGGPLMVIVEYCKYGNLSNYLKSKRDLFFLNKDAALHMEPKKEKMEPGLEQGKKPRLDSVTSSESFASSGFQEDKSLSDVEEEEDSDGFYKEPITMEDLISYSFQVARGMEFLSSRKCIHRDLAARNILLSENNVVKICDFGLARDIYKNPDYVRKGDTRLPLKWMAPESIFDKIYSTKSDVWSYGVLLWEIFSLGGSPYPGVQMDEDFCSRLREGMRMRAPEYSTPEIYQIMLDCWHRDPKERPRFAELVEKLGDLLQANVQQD
# Btk = molecular target: T17, Btk (Homo sapiens, UniProt Q06187); assay: Z'-Lyte FRET kinase assay (Invitrogen), Btk; details: read-out: IC50, activity toward kinase Btk
# T17 construct: purchased Invitrogen (assay run by Invitrogen)
# B-Raf = molecular target: T18, B-Raf (Homo sapiens, UniProt P15056); assay: AlphaScreen kinase assay, B-Raf; details: read-out: IC50, activity toward kinase B-Raf
# T18 construct: purchased Upstate Biotechnology
# Jnk1 = molecular target: T19, Jnk1 (Homo sapiens, UniProt P45983); assay: AlphaScreen kinase assay, Jnk1; details: read-out: IC50, activity toward kinase Jnk1
# T19 construct: purchased Upstate Biotechnology
# Src = molecular target: T20, Src (Homo sapiens, UniProt P12931); assay: AlphaScreen kinase assay, Src; details: read-out: IC50, activity toward kinase Src
# T20 construct: P1144. pET-N6 BI-PTP SRC V86-L536-X; made in house
# Zap70 = molecular target: T21, Zap70 (Homo sapiens, UniProt P43403); assay: AlphaScreen kinase assay, Zap70; details: read-out: IC50, activity toward kinase Zap70
# T21 construct: P1868.pFastBac1 ZAP70 D327-G606 HIS, WT; His7 (HHHHHHH) (C); made in house
# T21 sequence (P43403 with tags, fused parts or gaps): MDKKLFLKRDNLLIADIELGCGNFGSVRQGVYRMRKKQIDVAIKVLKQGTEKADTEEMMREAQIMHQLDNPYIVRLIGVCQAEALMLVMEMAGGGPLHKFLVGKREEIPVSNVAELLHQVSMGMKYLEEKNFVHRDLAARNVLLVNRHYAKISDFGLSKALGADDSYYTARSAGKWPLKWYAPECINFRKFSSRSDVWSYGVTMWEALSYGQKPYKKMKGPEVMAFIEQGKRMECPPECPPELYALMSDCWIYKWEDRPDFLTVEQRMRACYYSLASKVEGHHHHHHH
# Summary of the method: as §1
# T13 sequence (P15056 with tags, fused parts or gaps V600E): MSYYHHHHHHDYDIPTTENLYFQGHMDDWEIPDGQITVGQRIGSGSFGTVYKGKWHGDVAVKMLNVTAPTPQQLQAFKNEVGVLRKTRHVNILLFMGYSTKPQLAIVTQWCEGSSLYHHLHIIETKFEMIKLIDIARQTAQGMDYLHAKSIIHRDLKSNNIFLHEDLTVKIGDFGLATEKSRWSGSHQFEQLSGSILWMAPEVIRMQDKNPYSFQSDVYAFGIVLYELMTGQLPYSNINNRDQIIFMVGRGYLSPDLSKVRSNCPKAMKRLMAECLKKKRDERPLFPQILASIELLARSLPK
# T4 sequence (P35916 25-1363): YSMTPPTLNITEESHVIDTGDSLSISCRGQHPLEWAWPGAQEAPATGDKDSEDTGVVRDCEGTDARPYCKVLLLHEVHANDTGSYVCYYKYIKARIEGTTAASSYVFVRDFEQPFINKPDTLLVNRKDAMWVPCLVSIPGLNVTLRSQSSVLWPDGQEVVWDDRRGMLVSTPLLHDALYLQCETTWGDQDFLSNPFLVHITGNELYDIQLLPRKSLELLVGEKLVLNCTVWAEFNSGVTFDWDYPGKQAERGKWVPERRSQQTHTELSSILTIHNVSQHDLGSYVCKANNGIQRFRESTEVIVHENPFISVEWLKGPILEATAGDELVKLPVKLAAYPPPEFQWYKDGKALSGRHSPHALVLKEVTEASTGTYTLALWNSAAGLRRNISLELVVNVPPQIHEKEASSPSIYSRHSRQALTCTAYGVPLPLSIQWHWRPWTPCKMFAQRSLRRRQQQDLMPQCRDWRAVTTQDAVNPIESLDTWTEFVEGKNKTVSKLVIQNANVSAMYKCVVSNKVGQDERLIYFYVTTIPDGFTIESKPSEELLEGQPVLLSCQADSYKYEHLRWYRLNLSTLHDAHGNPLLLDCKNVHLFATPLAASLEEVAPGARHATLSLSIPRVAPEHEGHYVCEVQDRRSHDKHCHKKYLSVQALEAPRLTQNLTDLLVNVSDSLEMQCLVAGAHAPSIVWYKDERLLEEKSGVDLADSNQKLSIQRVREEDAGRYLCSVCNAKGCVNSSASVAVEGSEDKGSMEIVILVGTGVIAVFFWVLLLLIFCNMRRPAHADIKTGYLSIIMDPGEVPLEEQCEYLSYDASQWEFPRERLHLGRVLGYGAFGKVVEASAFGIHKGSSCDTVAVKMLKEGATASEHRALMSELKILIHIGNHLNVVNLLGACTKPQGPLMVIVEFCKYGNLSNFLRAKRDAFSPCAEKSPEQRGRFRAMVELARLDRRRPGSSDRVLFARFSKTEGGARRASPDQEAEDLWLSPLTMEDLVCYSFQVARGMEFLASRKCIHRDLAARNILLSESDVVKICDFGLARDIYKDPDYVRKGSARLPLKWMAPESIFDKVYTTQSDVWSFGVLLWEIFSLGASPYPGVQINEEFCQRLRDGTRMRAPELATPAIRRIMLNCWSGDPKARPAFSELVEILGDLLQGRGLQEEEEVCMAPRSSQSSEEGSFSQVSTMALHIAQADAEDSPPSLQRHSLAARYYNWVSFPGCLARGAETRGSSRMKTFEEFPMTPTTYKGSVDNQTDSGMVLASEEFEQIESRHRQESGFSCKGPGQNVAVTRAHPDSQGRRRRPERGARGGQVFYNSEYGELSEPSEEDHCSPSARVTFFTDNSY
# T10 sequence (P11362 458-765 C488A/C584S): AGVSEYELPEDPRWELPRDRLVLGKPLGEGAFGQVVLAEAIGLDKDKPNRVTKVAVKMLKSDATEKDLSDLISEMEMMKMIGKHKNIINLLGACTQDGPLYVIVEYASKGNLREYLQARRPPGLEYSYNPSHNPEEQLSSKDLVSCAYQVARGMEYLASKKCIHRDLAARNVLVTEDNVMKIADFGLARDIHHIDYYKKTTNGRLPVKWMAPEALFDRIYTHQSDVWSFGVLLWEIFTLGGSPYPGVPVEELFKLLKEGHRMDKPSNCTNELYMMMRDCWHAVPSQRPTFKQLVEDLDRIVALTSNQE
# T2 sequence (Q02750 whole entry): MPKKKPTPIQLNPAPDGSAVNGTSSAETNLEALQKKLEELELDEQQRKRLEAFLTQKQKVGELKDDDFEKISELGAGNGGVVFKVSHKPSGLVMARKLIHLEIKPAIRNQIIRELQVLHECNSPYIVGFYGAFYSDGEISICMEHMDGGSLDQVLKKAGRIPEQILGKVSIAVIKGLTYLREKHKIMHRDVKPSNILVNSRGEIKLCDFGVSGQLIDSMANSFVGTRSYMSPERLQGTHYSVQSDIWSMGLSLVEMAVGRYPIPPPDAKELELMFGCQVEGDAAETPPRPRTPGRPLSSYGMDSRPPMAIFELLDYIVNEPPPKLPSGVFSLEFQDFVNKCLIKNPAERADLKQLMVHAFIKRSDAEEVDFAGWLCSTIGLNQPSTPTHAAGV
# T6 sequence (P10721 with tags, fused parts or gaps): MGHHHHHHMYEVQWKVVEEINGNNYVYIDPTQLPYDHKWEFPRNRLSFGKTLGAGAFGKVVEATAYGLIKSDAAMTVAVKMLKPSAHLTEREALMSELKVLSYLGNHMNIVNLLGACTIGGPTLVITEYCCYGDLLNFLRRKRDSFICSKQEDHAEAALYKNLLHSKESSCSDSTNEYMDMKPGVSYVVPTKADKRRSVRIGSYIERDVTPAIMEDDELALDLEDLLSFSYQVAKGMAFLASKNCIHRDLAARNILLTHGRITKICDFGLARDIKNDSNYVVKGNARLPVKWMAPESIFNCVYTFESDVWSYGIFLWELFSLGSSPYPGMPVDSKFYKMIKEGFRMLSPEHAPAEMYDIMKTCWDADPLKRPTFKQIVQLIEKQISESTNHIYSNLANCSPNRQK
# T15 sequence (P07333 20-972): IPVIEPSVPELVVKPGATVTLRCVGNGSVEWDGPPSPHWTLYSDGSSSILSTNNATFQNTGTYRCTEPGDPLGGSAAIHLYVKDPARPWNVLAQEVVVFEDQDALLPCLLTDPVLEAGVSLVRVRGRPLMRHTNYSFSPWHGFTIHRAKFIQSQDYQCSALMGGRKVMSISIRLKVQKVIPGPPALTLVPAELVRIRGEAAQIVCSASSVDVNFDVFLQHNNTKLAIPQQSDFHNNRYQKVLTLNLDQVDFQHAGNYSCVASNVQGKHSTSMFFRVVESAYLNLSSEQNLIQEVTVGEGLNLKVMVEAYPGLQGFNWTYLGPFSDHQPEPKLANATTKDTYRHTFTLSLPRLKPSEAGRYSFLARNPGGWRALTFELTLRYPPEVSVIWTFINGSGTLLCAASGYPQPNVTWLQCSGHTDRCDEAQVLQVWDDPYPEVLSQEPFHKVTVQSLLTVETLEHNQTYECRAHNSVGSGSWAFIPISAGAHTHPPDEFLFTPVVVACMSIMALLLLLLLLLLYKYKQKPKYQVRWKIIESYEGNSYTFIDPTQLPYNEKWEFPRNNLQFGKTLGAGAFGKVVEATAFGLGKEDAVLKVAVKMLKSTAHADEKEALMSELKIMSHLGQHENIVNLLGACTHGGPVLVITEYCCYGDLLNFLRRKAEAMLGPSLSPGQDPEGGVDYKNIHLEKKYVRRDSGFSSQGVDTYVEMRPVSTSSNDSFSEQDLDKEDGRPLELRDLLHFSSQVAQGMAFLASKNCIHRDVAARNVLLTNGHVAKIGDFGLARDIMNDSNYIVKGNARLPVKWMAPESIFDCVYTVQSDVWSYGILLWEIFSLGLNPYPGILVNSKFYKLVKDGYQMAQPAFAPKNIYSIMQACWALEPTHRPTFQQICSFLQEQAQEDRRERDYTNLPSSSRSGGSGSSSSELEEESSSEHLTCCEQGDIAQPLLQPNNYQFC
# T5 sequence (P53779 whole entry): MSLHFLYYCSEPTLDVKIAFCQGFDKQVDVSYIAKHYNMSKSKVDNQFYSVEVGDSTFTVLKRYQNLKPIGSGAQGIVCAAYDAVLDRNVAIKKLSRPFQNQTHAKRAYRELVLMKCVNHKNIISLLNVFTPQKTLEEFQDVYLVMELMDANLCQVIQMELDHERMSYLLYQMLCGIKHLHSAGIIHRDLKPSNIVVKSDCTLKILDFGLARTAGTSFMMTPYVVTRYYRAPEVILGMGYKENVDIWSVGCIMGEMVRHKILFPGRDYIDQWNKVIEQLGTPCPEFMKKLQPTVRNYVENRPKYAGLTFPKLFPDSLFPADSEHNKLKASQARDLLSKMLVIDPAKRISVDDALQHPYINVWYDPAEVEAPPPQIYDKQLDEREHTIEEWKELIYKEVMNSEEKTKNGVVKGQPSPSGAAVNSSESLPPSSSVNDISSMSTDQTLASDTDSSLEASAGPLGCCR
# T14 sequence (P04049 whole entry): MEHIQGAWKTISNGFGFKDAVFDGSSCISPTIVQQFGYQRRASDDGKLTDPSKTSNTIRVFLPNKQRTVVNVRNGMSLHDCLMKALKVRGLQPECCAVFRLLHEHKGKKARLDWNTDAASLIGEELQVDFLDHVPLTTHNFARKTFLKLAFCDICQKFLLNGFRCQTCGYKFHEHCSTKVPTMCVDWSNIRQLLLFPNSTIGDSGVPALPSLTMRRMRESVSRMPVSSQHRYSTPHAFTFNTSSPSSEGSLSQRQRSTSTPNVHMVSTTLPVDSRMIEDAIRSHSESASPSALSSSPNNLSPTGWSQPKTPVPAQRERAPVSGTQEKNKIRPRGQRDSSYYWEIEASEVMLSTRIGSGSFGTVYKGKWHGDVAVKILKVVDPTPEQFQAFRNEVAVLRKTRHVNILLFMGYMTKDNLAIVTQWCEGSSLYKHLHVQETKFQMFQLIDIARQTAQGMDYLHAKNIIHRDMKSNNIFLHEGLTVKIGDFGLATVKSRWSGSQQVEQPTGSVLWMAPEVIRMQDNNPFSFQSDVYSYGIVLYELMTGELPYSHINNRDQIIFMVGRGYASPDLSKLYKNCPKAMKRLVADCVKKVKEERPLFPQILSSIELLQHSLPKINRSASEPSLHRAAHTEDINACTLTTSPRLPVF
pIC50 (Kdr),pIC50 (MAP2K1),pIC50 (Flt4),pIC50 (Jnk3),pIC50 (Kit),pIC50 (Ret),pIC50 (Abl),pIC50 (FGFR1),pIC50 (B-Raf V600E),pIC50 (Flt1),Compound,other results
≥ 5.00,≥ 5.00,–,–,–,–,–,–,–,–,c1cncc(-c2c[nH]c3ncccc23)c1 [Compound P-0023],pIC50 (Stk6): ≥ 5.00
≥ 5.00,–,≥ 5.00,≥ 5.00,≥ 5.00,≥ 5.00,–,–,–,–,Cc1cc(C(=O)c2c[nH]c3ncc(-c4cccc(N)c4)cc23)nn1C [Compound P-0117],pIC50 (Met): ≥ 5.00; pIC50 (Stk6): ≥ 5.00
≥ 5.00,–,≥ 5.00,–,≥ 5.00,≥ 5.00,≥ 5.00,≥ 5.00,–,–,COc1cccc(Cc2c[nH]c3ncc(-c4cccs4)cc23)c1 [Compound P-0142],pIC50 (Jnk2): ≥ 5.00; pIC50 (Pyk2): ≥ 5.00
≥ 5.00,≥ 5.00,–,–,–,≥ 5.00,–,≥ 5.00,–,–,O=C(c1ccccc1F)c1c[nH]c2ncccc12 [Compound P-0158],–
≥ 5.00,≥ 5.00,–,–,–,–,–,≥ 5.00,≥ 5.00,–,"CS(=O)(=O)Nc1ccc(F)c(C(=O)c2c[nH]c3ncc(Br)cc23)c1 [Compound P-0170, N-[3-(5-Bromo-1H-pyrrolo[2,3-b]pyridine-3-carbonyl)-4-fluoro-phenyl]-methanesulfonamide]",pIC50 (c-Raf-1): ≥ 5.00; pIC50 (Fms): ≥ 5.00
≥ 5.00,≥ 5.00,–,–,–,–,–,–,–,≥ 5.00,O=C1NCc2ccccc2N1Cc1c[nH]c2ncccc12 [Compound P-0194],–
–,–,≥ 5.00,–,≥ 5.00,≥ 5.00,–,≥ 5.00,≥ 5.00,≥ 5.00,COc1ccc(F)c(C(=O)c2c[nH]c3ncc(-c4cccc(NC(C)=O)c4)cc23)c1 [Compound P-0325],pIC50 (Btk): ≥ 5.00; pIC50 (Fms): ≥ 5.00; pIC50 (Met): ≥ 5.00
–,≥ 5.00,–,–,–,–,–,–,–,–,O=C(CCc1c[nH]c2ncccc12)NCc1ccccc1 [Compound P-0331],–
≥ 5.00,≥ 5.00,–,–,–,–,–,–,–,≥ 5.00,S=C(NCc1c[nH]c2ncccc12)Nc1cccc(Cl)c1 [Compound P-0337],–
≥ 5.00,–,≥ 5.00,≥ 5.00,≥ 5.00,≥ 5.00,≥ 5.00,≥ 5.00,≥ 5.00,≥ 5.00,O=C(c1cc(O)ccc1F)c1c[nH]c2ncc(-c3cccnc3)cc12 [Compound P-0559],pIC50 (B-Raf): ≥ 5.00; pIC50 (c-Raf-1): ≥ 5.00; pIC50 (Fms): ≥ 5.00; pIC50 (Jnk1): ≥ 5.00; pIC50 (Pyk2): ≥ 5.00; pIC50 (Src): ≥ 5.00
–,≥ 5.00,–,–,–,–,–,–,–,–,O=C(NCc1cccc(Cl)c1)NCc1c[nH]c2ncccc12 [Compound P-0568],–
–,–,≥ 5.00,≥ 5.00,≥ 5.00,≥ 5.00,≥ 5.00,≥ 5.00,≥ 5.00,–,COc1cc(O)cc(Cc2c[nH]c3ncc(-c4ccsc4)cc23)c1 [Compound P-0594],pIC50 (B-Raf): ≥ 5.00; pIC50 (Jnk2): ≥ 5.00
≥ 5.00,–,≥ 5.00,≥ 5.00,≥ 5.00,≥ 5.00,≥ 5.00,≥ 5.00,≥ 5.00,≥ 5.00,Nc1cccc(-c2cnc3[nH]cc(C(=O)c4ccccc4F)c3c2)c1 [Compound P-0624],pIC50 (Jnk1): ≥ 5.00; pIC50 (Src): ≥ 5.00; pIC50 (Zap70): ≥ 5.00
